Measured values from ChEMBL document CHEMBL3885861, “Open TG-GATES”.

Species: Rattus norvegicus
Assay: Open TG-GATES - Regimen: Single
Assay type: toxicity, organism-based, Sprague-Dawley
Set-up: regimen Single, gender Male, age 6 weeks
Settings: in vivo, po, route gavage; for APTT / Bas / Eos / Fbg / Hb / Ht / Lym / MCH / MCHC / MCV / Mono / Neu / PT / Plat / RBC / Ret / WBC: tissue Blood; for KIDNEY_L / KIDNEY_R / KIDNEY_TOTAL: tissue Kidney; for LIVER: tissue Liver; for A/G / ALP / ALT / AST / BUN / CRE / Ca / Cl / DBIL / GLC / IP / K / LDH / Na / PL / RALB / TBIL / TC / TG / TP / gamma-GTP: tissue Plasma
[1] = 1000 mg/kg, 3 h, dose level Middle
[2] = 1000 mg/kg, 6 h, dose level Middle
[3] = 1000 mg/kg, 9 h, dose level Middle
[4] = 1000 mg/kg, 24 h, dose level Middle
[5] = 2000 mg/kg, 3 h, dose level High
[6] = 2000 mg/kg, 6 h, dose level High
[7] = 2000 mg/kg, 9 h, dose level High
[8] = 2000 mg/kg, 24 h, dose level High

## CC(=O)[C@@]1(O)CC[C@H]2[C@@H]3C=C(Cl)C4=CC(=O)CC[C@]4(C)[C@H]3CC[C@@]21C [CHLORMADINONE]
[1]
  TERMINAL_BW: 226.2 g
  APTT: 23.3 s
  Bas: 0%
  Eos: 1%
  Fbg: 302 mg/dL
  Hb: 12.9 g/dL
  Ht: 40.2%
  Lym: 75%
  MCH: 21.2 pg
  MCHC: 32.1%
  MCV: 66.1 fL
  Mono: 2.4%
  Neu: 21.2%
  PT: 15.8 s
  Plat: 112.9 x10_4/uL
  RBC: 608.8 x10_4/ul
  Ret: 9.1%
  WBC: 72.4 x10_2/uL
  KIDNEY_L: 1 g
  KIDNEY_R: 1.1 g
  KIDNEY_TOTAL: 2.1 g
  LIVER: 10.9 g
  A/G: 1.3
  ALP: 1451.2 IU/L
  ALT: 38.8 IU/L
  AST: 74 IU/L
  BUN: 13.8 mg/dL
  CRE: 0.1 mg/dL
  Ca: 11.2 mg/dL
  Cl: 104.6 meq/L
  DBIL: 0 mg/dL
  GLC: 176.4 mg/dL
  IP: 8 mg/dL
  K: 4.3 meq/L
  LDH: 166.6 IU/L
  Na: 141.6 meq/L
  PL: 134.4 mg/dL
  RALB: 3.1 g/dL
  TBIL: 0.028 mg/dL
  TC: 74.4 mg/dL
  TG: 50 mg/dL
  TP: 5.5 g/dL
  gamma-GTP: 2 IU/L
[2]
  TERMINAL_BW: 221.4 g
  APTT: 23.3 s
  Bas: 0%
  Eos: 0.2%
  Fbg: 300.8 mg/dL
  Hb: 13 g/dL
  Ht: 40.1%
  Lym: 72.2%
  MCH: 19.8 pg
  MCHC: 32.5%
  MCV: 61.1 fL
  Mono: 1.6%
  Neu: 25.2%
  PT: 15.6 s
  Plat: 119.2 x10_4/uL
  RBC: 655.4 x10_4/ul
  Ret: 8.1%
  WBC: 56.2 x10_2/uL
  KIDNEY_L: 1 g
  KIDNEY_R: 1 g
  KIDNEY_TOTAL: 2 g
  LIVER: 10.3 g
  A/G: 1.2
  ALP: 1445.6 IU/L
  ALT: 43 IU/L
  AST: 73 IU/L
  BUN: 13 mg/dL
  CRE: 0.2 mg/dL
  Ca: 10.8 mg/dL
  Cl: 105.2 meq/L
  DBIL: 0.002 mg/dL
  GLC: 181.2 mg/dL
  IP: 10.2 mg/dL
  K: 4.6 meq/L
  LDH: 143.6 IU/L
  Na: 140.4 meq/L
  PL: 138.2 mg/dL
  RALB: 3.1 g/dL
  TBIL: 0.04 mg/dL
  TC: 81.6 mg/dL
  TG: 27.6 mg/dL
  TP: 5.6 g/dL
  gamma-GTP: 1.6 IU/L
[3]
  TERMINAL_BW: 211.4 g
  APTT: 23.8 s
  Bas: 0%
  Eos: 0.2%
  Fbg: 336.2 mg/dL
  Hb: 13.3 g/dL
  Ht: 41.7%
  Lym: 72.4%
  MCH: 20 pg
  MCHC: 32%
  MCV: 62.5 fL
  Mono: 1%
  Neu: 25.6%
  PT: 15.4 s
  Plat: 110.4 x10_4/uL
  RBC: 667.4 x10_4/ul
  Ret: 7.4%
  WBC: 39.5 x10_2/uL
  KIDNEY_L: 1 g
  KIDNEY_R: 1 g
  KIDNEY_TOTAL: 1.9 g
  LIVER: 10.5 g
  A/G: 1.2
  ALP: 1398.6 IU/L
  ALT: 40.2 IU/L
  AST: 74.6 IU/L
  BUN: 13 mg/dL
  CRE: 0.1 mg/dL
  Ca: 10.7 mg/dL
  Cl: 106.2 meq/L
  DBIL: 0.002 mg/dL
  GLC: 188 mg/dL
  IP: 9.1 mg/dL
  K: 4.3 meq/L
  LDH: 157.2 IU/L
  Na: 141.2 meq/L
  PL: 156.2 mg/dL
  RALB: 3.2 g/dL
  TBIL: 0.024 mg/dL
  TC: 84.4 mg/dL
  TG: 81.2 mg/dL
  TP: 5.7 g/dL
  gamma-GTP: 1.2 IU/L
[4]
  TERMINAL_BW: 231.1 g
  APTT: 24.4 s
  Bas: 0%
  Eos: 1%
  Fbg: 333.6 mg/dL
  Hb: 13.2 g/dL
  Ht: 40.6%
  Lym: 77.8%
  MCH: 20.5 pg
  MCHC: 32.6%
  MCV: 63 fL
  Mono: 2.2%
  Neu: 18.6%
  PT: 15.5 s
  Plat: 125.6 x10_4/uL
  RBC: 644.6 x10_4/ul
  Ret: 7.9%
  WBC: 130.2 x10_2/uL
  KIDNEY_L: 1 g
  KIDNEY_R: 1.1 g
  KIDNEY_TOTAL: 2.1 g
  LIVER: 12.1 g
  A/G: 1.2
  ALP: 1702.6 IU/L
  ALT: 45.8 IU/L
  AST: 70.8 IU/L
  BUN: 17.8 mg/dL
  CRE: 0.2 mg/dL
  Ca: 11.1 mg/dL
  Cl: 105.8 meq/L
  DBIL: 0 mg/dL
  GLC: 193.4 mg/dL
  IP: 7.8 mg/dL
  K: 4.5 meq/L
  LDH: 184.2 IU/L
  Na: 140.8 meq/L
  PL: 168 mg/dL
  RALB: 3.3 g/dL
  TBIL: 0 mg/dL
  TC: 77.2 mg/dL
  TG: 188.8 mg/dL
  TP: 5.9 g/dL
  gamma-GTP: 1.6 IU/L
[5]
  TERMINAL_BW: 222.1 g
  APTT: 22.6 s
  Bas: 0%
  Eos: 1%
  Fbg: 306 mg/dL
  Hb: 12.8 g/dL
  Ht: 39.5%
  Lym: 74.8%
  MCH: 20 pg
  MCHC: 32.4%
  MCV: 61.8 fL
  Mono: 2%
  Neu: 21.6%
  PT: 15.2 s
  Plat: 107.8 x10_4/uL
  RBC: 639.8 x10_4/ul
  Ret: 7.8%
  WBC: 55.6 x10_2/uL
  KIDNEY_L: 0.9 g
  KIDNEY_R: 1 g
  KIDNEY_TOTAL: 1.9 g
  LIVER: 10.1 g
  A/G: 1.2
  ALP: 1401.2 IU/L
  ALT: 45.6 IU/L
  AST: 81 IU/L
  BUN: 13.8 mg/dL
  CRE: 0.2 mg/dL
  Ca: 10.9 mg/dL
  Cl: 105.2 meq/L
  DBIL: 0.004 mg/dL
  GLC: 172.2 mg/dL
  IP: 8.9 mg/dL
  K: 4.2 meq/L
  LDH: 143.6 IU/L
  Na: 141.2 meq/L
  PL: 138 mg/dL
  RALB: 3 g/dL
  TBIL: 0.032 mg/dL
  TC: 73.6 mg/dL
  TG: 50.8 mg/dL
  TP: 5.5 g/dL
  gamma-GTP: 1.4 IU/L
[6]
  TERMINAL_BW: 216.3 g
  APTT: 23.1 s
  Bas: 0%
  Eos: 0.6%
  Fbg: 313.4 mg/dL
  Hb: 13.5 g/dL
  Ht: 41.5%
  Lym: 74%
  MCH: 20.8 pg
  MCHC: 32.6%
  MCV: 63.7 fL
  Mono: 1.6%
  Neu: 23.4%
  PT: 15.1 s
  Plat: 124.8 x10_4/uL
  RBC: 651.8 x10_4/ul
  Ret: 7.9%
  WBC: 64 x10_2/uL
  KIDNEY_L: 1 g
  KIDNEY_R: 1 g
  KIDNEY_TOTAL: 2 g
  LIVER: 10.3 g
  A/G: 1.2
  ALP: 1302 IU/L
  ALT: 40.4 IU/L
  AST: 72.8 IU/L
  BUN: 13 mg/dL
  CRE: 0.1 mg/dL
  Ca: 10.8 mg/dL
  Cl: 106.2 meq/L
  DBIL: 0.004 mg/dL
  GLC: 177.4 mg/dL
  IP: 9.6 mg/dL
  K: 4.8 meq/L
  LDH: 157 IU/L
  Na: 140 meq/L
  PL: 138 mg/dL
  RALB: 3.2 g/dL
  TBIL: 0.034 mg/dL
  TC: 77.2 mg/dL
  TG: 39.8 mg/dL
  TP: 5.7 g/dL
  gamma-GTP: 1.6 IU/L
[7]
  TERMINAL_BW: 215.8 g
  APTT: 24.7 s
  Bas: 0%
  Eos: 0%
  Fbg: 319.6 mg/dL
  Hb: 13 g/dL
  Ht: 40.7%
  Lym: 71.2%
  MCH: 20.2 pg
  MCHC: 31.9%
  MCV: 63.4 fL
  Mono: 1%
  Neu: 27.2%
  PT: 15.7 s
  Plat: 119.5 x10_4/uL
  RBC: 642 x10_4/ul
  Ret: 7.9%
  WBC: 51.3 x10_2/uL
  KIDNEY_L: 0.9 g
  KIDNEY_R: 1 g
  KIDNEY_TOTAL: 1.9 g
  LIVER: 9.8 g
  A/G: 1.3
  ALP: 1584 IU/L
  ALT: 39.4 IU/L
  AST: 78 IU/L
  BUN: 12.8 mg/dL
  CRE: 0.1 mg/dL
  Ca: 10.6 mg/dL
  Cl: 106.6 meq/L
  DBIL: 0 mg/dL
  GLC: 178 mg/dL
  IP: 9.4 mg/dL
  K: 4.5 meq/L
  LDH: 142 IU/L
  Na: 141 meq/L
  PL: 142.4 mg/dL
  RALB: 3.2 g/dL
  TBIL: 0.028 mg/dL
  TC: 73 mg/dL
  TG: 67.2 mg/dL
  TP: 5.7 g/dL
  gamma-GTP: 1.4 IU/L
[8]
  TERMINAL_BW: 229.8 g
  APTT: 25.3 s
  Bas: 0%
  Eos: 1%
  Fbg: 341.6 mg/dL
  Hb: 14 g/dL
  Ht: 42.6%
  Lym: 77.6%
  MCH: 20.4 pg
  MCHC: 32.8%
  MCV: 62 fL
  Mono: 2.6%
  Neu: 17.8%
  PT: 15.3 s
  Plat: 106.3 x10_4/uL
  RBC: 687 x10_4/ul
  Ret: 7.3%
  WBC: 130.3 x10_2/uL
  KIDNEY_L: 1 g
  KIDNEY_R: 1 g
  KIDNEY_TOTAL: 2 g
  LIVER: 11.8 g
  A/G: 1.2
  ALP: 1835.4 IU/L
  ALT: 51.2 IU/L
  AST: 75 IU/L
  BUN: 15.8 mg/dL
  CRE: 0.2 mg/dL
  Ca: 11.3 mg/dL
  Cl: 105.4 meq/L
  DBIL: 0 mg/dL
  GLC: 192.4 mg/dL
  IP: 7.8 mg/dL
  K: 4.7 meq/L
  LDH: 201 IU/L
  Na: 140.6 meq/L
  PL: 185.2 mg/dL
  RALB: 3.2 g/dL
  TBIL: 0.004 mg/dL
  TC: 82 mg/dL
  TG: 222 mg/dL
  TP: 5.8 g/dL
  gamma-GTP: 1.4 IU/L
